Test system: 931267-113-T-J1-PDC KRAS spheroid with HUVEC/MSC, viability
Test: Anticancer human tumor 931267-113-T-J1-PDC patient-derived colon adenocarcinoma cell line growth inhibition [KRAS2]
Settings: for viability, T/C: stronger effect = lower value
Outline: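 Combination screen of spheroid viability in tumor-cell co-cultures with endothelial (HUVEC) and mesenchymal stem cell stroma. Each agent was tested in half-log dilutions, topping at clinical Cmax or at 10 microM without a known Cmax.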

[1] = curve of first compound, second compound 0.1 µM
[2] = curve of first compound, second compound 0.316 µM
[3] = curve of first compound, second compound 1 µM
[4] = curve of first compound, second compound 3.16 µM
[5] = curve of first compound, second compound 10 µM
[6] = second compound 0.1 µM, first compound 0.0316 µM
[7] = second compound 0.1 µM, first compound 0.1 µM
[8] = second compound 0.1 µM, first compound 0.316 µM
[9] = second compound 0.1 µM, first compound 1 µM
[10] = second compound 0.1 µM, first compound 3.16 µM
[11] = second compound 0.1 µM, first compound 10 µM
[12] = second compound 0.316 µM, first compound 0.0316 µM
[13] = second compound 0.316 µM, first compound 0.1 µM
[14] = second compound 0.316 µM, first compound 0.316 µM
[15] = second compound 0.316 µM, first compound 1 µM
[16] = second compound 0.316 µM, first compound 3.16 µM
[17] = second compound 0.316 µM, first compound 10 µM
[18] = second compound 1 µM, first compound 0.0316 µM
[19] = second compound 1 µM, first compound 0.1 µM
[20] = second compound 1 µM, first compound 0.316 µM
[21] = second compound 1 µM, first compound 1 µM
[22] = second compound 1 µM, first compound 3.16 µM
[23] = second compound 1 µM, first compound 10 µM
[24] = second compound 3.16 µM, first compound 0.0316 µM
[25] = second compound 3.16 µM, first compound 0.1 µM
[26] = second compound 3.16 µM, first compound 0.316 µM
[27] = second compound 3.16 µM, first compound 1 µM
[28] = second compound 3.16 µM, first compound 3.16 µM
[29] = second compound 3.16 µM, first compound 10 µM
[30] = second compound 10 µM, first compound 0.0316 µM
[31] = second compound 10 µM, first compound 0.1 µM
[32] = second compound 10 µM, first compound 0.316 µM
[33] = second compound 10 µM, first compound 1 µM
[34] = second compound 10 µM, first compound 3.16 µM
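Note: compound exposure lasted 7 days before the readout.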
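Throughout, for viability, T/C: 100% = DMSO vehicle control viability.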

SMILES	IC50 [1]	IC50 [2]	IC50 [3]	IC50 [4]	viability, T/C [6]	viability, T/C [7]	viability, T/C [8]	viability, T/C [9]	viability, T/C [10]	viability, T/C [12]	viability, T/C [13]	viability, T/C [14]	viability, T/C [15]	viability, T/C [16]	viability, T/C [18]	viability, T/C [19]	viability, T/C [20]	viability, T/C [21]	viability, T/C [22]	viability, T/C [24]	also measured
CC(C)NCC(C(=O)N1CCN(c2ncnc3c2C(C)CC3O)CC1)c1ccc(Cl)cc1 (stereo not given) + COc1cc2nc(C)nc(NC(C)c3cc(N)cc(C(F)(F)F)c3)c2cc1OC1CCOC1	> 10 µM	5.27 µM	4.36 µM	1.62 µM	87.4%	105%	104%	77.2%	58.3%	106%	91.6%	83.3%	76.2%	56%	88%	76.9%	72.7%	70.4%	54%	78.5%	IC50 [5]: < 0.0316 µM; viability, T/C [11]: 59.9%; viability, T/C [17]: 40.4%; viability, T/C [23]: 37.9%; viability, T/C [25]: 76.7%; viability, T/C [26]: 67.2%; viability, T/C [27]: 54.6%; viability, T/C [28]: 42.7%; viability, T/C [29]: 20.6%; viability, T/C [30]: 0.91%; viability, T/C [31]: 1.02%; viability, T/C [32]: 0.68%; viability, T/C [33]: 0.76%; viability, T/C [34]: 0.45%; viability, T/C (second compound 10 µM, first compound 10 µM): 0.48%
CC1(C)CCC(CN2CCN(c3ccc(C(=O)NS(=O)(=O)c4ccc(NCC5CCOCC5)c([N+](=O)[O-])c4)c(Oc4cnc5[nH]ccc5c4)c3)CC2)=C(c2ccc(Cl)cc2)C1 + C=CC(=O)N1CCN(c2nc(OCC3CCCN3C)nc3c2CCN(c2cccc4cccc(C)c24)C3)CC1CC#N	2.36 µM	1.9 µM	1.55 µM	< 0.0316 µM	110%	120%	97.5%	106%	31%	114%	94.8%	89.3%	94.6%	14.8%	102%	84.3%	94.5%	78%	4.65%	0.38%	IC50 (curve of first compound, second compound 0.0316 µM): 1.96 µM; viability, T/C (second compound 0.0316 µM, first compound 0.0316 µM): 107%; viability, T/C (second compound 0.0316 µM, first compound 0.1 µM): 93.6%; viability, T/C (second compound 0.0316 µM, first compound 0.316 µM): 102%; viability, T/C (second compound 0.0316 µM, first compound 1 µM): 83%; viability, T/C (second compound 0.0316 µM, first compound 3.16 µM): 26.2%; viability, T/C (second compound 0.0316 µM, first compound 10 µM): 0.37%; viability, T/C [11]: 0.82%; viability, T/C [17]: 0.28%; viability, T/C [23]: 0.18%; viability, T/C [25]: 0.51%; viability, T/C [26]: 0.75%; viability, T/C [27]: 0.2%; viability, T/C [28]: 0.34%; viability, T/C [29]: 0.26%
CC(=O)OC12COC1CC(O)C1(C)C(=O)C(O)C3=C(C)C(OC(=O)C(O)C(NC(=O)OC(C)(C)C)c4ccccc4)CC(O)(C(OC(=O)c4ccccc4)C21)C3(C)C (stereo not given) + CNCc1ccccc1-c1csc(C(C)Nc2nc(C)nc3cc(OC)c(OC)cc23)c1	> 3.16 µM	> 3.16 µM	> 3.16 µM	< 0.01 µM	99.3%	109%	98.9%	82%	87.8%	110%	89.7%	96.4%	101%	113%	105%	91.3%	111%	89.7%	77.4%	102%	IC50 [5]: < 0.01 µM; viability, T/C (second compound 0.1 µM, first compound 0.01 µM): 88.2%; viability, T/C (second compound 0.316 µM, first compound 0.01 µM): 109%; viability, T/C (second compound 1 µM, first compound 0.01 µM): 106%; viability, T/C (second compound 3.16 µM, first compound 0.01 µM): 0.73%; viability, T/C [25]: 0.55%; viability, T/C [26]: 0.5%; viability, T/C [27]: 0.41%; viability, T/C [28]: 105%; viability, T/C (second compound 10 µM, first compound 0.01 µM): 0.33%; viability, T/C [30]: 0.34%; viability, T/C [31]: 0.31%; viability, T/C [32]: 0.36%; viability, T/C [33]: 0.18%; viability, T/C [34]: 0.93%
CC1COCCN1c1cc(-c2ccnn2C)c2ccnc(-c3ccn[nH]3)c2n1 (stereo not given)																					viability, T/C (compound 0.1 µM): 23.9% [middle of 5 runs]; viability, T/C (compound 0.316 µM): 20.2% [middle of 5 runs]; viability, T/C (compound 1 µM): 21.8% [middle of 5 runs]; viability, T/C (compound 3.16 µM): 20.6% [middle of 5 runs]; IC50 (curve of compound): 54.7 nM [middle of 5 runs]
